Measurements published in patent US6737383B1, “Herbicidal oxadiazolidines” (priority 1999, dated 2004).

What was measured:
bedstraw = experiment: Test B pre/postemergence bedstraw; assay type: in vivo, Galium aparine
Method in brief: (§1)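 Herbicidal effect was estimated by eye on a ten-point control scale after plants spent twelve to sixteen days in a greenhouse following soil or foliar treatment. Foliar sprays targeted plants at one to four leaves; all doses were formulated in a non-phytotoxic solvent with surfactant.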

soybean = experiment: Test B pre/postemergence soybean; assay type: in vivo, Glycine max
Method in brief: as §1

blackgrass = experiment: Test B pre/postemergence blackgrass; assay type: in vivo, Alopecurus myosuroides
Method in brief: as §1

velvetleaf = experiment: Test B pre/postemergence velvetleaf; assay type: in vivo, Abutilon theophrasti
Method in brief: as §1

[1] = Postemergence, Rate 125 g/ha, scale of 0 to 10 where 0 is no effect and 10 is complete control
[2] = Postemergence, Rate 250 g/ha, scale of 0 to 10, 0 is no effect, 10 is complete control
[3] = Preemergence, Rate 62 g/ha, scale 0 to 10 (0 no effect, 10 complete control)
[4] = Preemergence, Rate 125 g/ha, scale of 0 to 10 where 0 is no effect and 10 is complete control
[5] = Preemergence, Rate 500 g/ha, scale of 0 to 10 where 0 is no effect and 10 is complete control
[6] = Postemergence, Rate 62 g/ha, scale 0 to 10, 0 is no effect, 10 is complete control
[7] = Postemergence, Rate 500 g/ha, scale of 0 to 10 where 0 is no effect and 10 is complete control
[8] = Postemergence, Rate 250 g/ha, scale 0 to 10
[9] = Rate 125 g/ha, Postemergence, scale 0 to 10, 0 is no effect, 10 is complete control
[10] = Preemergence, Rate 62 g/ha, scale of 0 to 10 where 0 is no effect and 10 is complete control
[11] = Preemergence, Rate 250 g/ha, scale 0 to 10, 0 is no effect, 10 is complete control
[12] = Preemergence, Rate 500 g/ha, scale 0 to 10, 0 is no effect, 10 is complete control
[13] = Rate 62 g/ha, Postemergence, scale 0 to 10 (0 no effect, 10 complete control)
[14] = Preemergence, Rate 125 g/ha, 0 is no effect, 10 is complete control
[15] = Rate 62 g/ha, Postemergence, scale of 0 to 10 where 0 is no effect and 10 is complete control
[16] = Rate 125 g/ha, Postemergence, scale 0 to 10
[17] = Rate 500 g/ha, Postemergence, scale 0 to 10
[18] = Preemergence, Rate 500 g/ha, scale 0 to 10 (0 no effect, 10 complete control)
[19] = Rate 250 g/ha, Postemergence, scale 0 to 10, 0 is no effect, 10 is complete control
[20] = Postemergence, Rate 250 g/ha, scale 0 to 10, 0 no effect, 10 complete control
[21] = Preemergence, Rate 125 g/ha, scale 0 to 10 (0 no effect, 10 complete control)
[22] = Preemergence, Rate 250 g/ha, scale of 0 to 10 where 0 is no effect and 10 is complete control
[23] = Rate 125 g/ha, Postemergence, scale 0 to 10, 0 no effect, 10 complete control
[24] = Rate 500 g/ha, Postemergence, scale 0 to 10, 0 no effect, 10 complete control
[25] = Preemergence, Rate 500 g/ha, scale 0 (no effect) to 10 (complete control)
[26] = Postemergence, Rate 62 g/ha, scale of 0 to 10, 0 is no effect, 10 is complete control
[27] = Preemergence, Rate 125 g/ha, scale 0 to 10, 0 is no effect, 10 is complete control
[28] = Rate 250 g/ha, Postemergence, scale of 0 to 10 where 0 is no effect and 10 is complete control

CC(C)N(C(=O)n1oc(=O)n(CC2=NOCCC2)c1=O)c1ccc(F)cc1F [Compound 602]
Plant response rating, Bedstraw (bedstraw; [1]): 3 | Bedstraw plant response rating (bedstraw; [2]): 3 | Bedstraw plant response rating (bedstraw; [3]): 0 | Bedstraw plant response rating (bedstraw; [4]): 0 | Bedstraw plant response rating (0 to 10 scale) (bedstraw; Preemergence, Rate 250 g/ha): 0 | Bedstraw plant response rating (bedstraw; [5]): 0 | Plant response rating, Soybean (soybean; [6]): 3 | Plant response rating, Soybean (soybean; [1]): 3 | Soybean plant response rating (soybean; [2]): 5 | Plant response rating, Soybean (soybean; [7]): 7 | Soybean plant response rating (soybean; [4]): 0 | Plant response rating, Soybean (soybean; [5]): 0 | Plant response rating, Blackgrass (blackgrass; [6]): 4 | Plant response rating, Blackgrass (blackgrass; [1]): 6 | Blackgrass plant response rating (blackgrass; [2]): 8 | Plant response rating, Blackgrass (blackgrass; [7]): 9 | Blackgrass plant response rating (blackgrass; [3]): 0 | Blackgrass plant response rating (blackgrass; [4]): 4 | Blackgrass plant response rating (0 to 10 scale) (blackgrass; Preemergence, Rate 250 g/ha): 6 | Blackgrass plant response rating (blackgrass; [5]): 9 | Plant response rating, Velvetleaf (velvetleaf; [6]): 0 | Plant response rating, Velvetleaf (velvetleaf; [1]): 0 | Velvetleaf plant response rating (velvetleaf; [2]): 0 | Plant response rating, Velvetleaf (velvetleaf; [7]): 0 | Velvetleaf plant response rating (velvetleaf; [3]): 0 | Velvetleaf plant response rating (velvetleaf; [4]): 6 | Plant response rating, Velvetleaf (velvetleaf; [5]): 6

CC(C)N(C(=O)n1oc(=O)n(CC(=O)N(C)C)c1=O)c1ccc(F)cc1F [Compound 440]
Bedstraw plant response rating (bedstraw; [8]): 2 | Bedstraw plant response rating (bedstraw; [9]): 0 | Soybean plant response rating (soybean; [8]): 6 | Soybean plant response rating (soybean; [7]): 7 | Plant response rating, Soybean (soybean; [10]): 0 | Plant response rating, Soybean (soybean; [4]): 0 | Soybean plant response rating (soybean; [11]): 0 | Soybean plant response rating (soybean; [12]): 0 | Soybean plant response rating (soybean; [13]): 5 | Soybean plant response rating (soybean; [9]): 6 | Blackgrass plant response rating (blackgrass; [8]): 4 | Blackgrass plant response rating (blackgrass; [7]): 8 | Plant response rating, Blackgrass (blackgrass; [10]): 2 | Plant response rating, Blackgrass (blackgrass; [4]): 6 | Blackgrass plant response rating (blackgrass; [11]): 10 | Blackgrass plant response rating (blackgrass; [12]): 10 | Blackgrass plant response rating (blackgrass; [13]): 0 | Blackgrass plant response rating (blackgrass; [9]): 0 | Velvetleaf plant response rating (velvetleaf; [8]): 0 | Velvetleaf plant response rating (velvetleaf; [7]): 2 | Plant response rating, Velvetleaf (velvetleaf; [10]): 0 | Plant response rating, Velvetleaf (velvetleaf; [4]): 0 | Velvetleaf plant response rating (velvetleaf; [11]): 0 | Velvetleaf plant response rating (velvetleaf; [12]): 7 | Velvetleaf plant response rating (velvetleaf; [13]): 0 | Velvetleaf plant response rating (velvetleaf; [9]): 0

CC(C)N(C(=O)n1oc(=O)n(Cc2ccco2)c1=O)c1ccc(Cl)cc1 [Compound 206]
Bedstraw plant response rating (bedstraw; [10]): 0 | Bedstraw plant response rating (0 to 10 scale) (bedstraw; [14]): 0 | Bedstraw plant response rating (bedstraw; [11]): 0 | Plant response rating, Bedstraw (bedstraw; [5]): 0 | Bedstraw plant response rating (bedstraw; [15]): 0 | Bedstraw plant response rating (bedstraw; [16]): 0 | Plant response rating (0 to 10; 0 is no effect, 10 is complete control), Bedstraw (bedstraw; Rate 250 g/ha, Postemergence): 0 | Bedstraw plant response rating (bedstraw; [17]): 0 | Soybean plant response rating (soybean; [10]): 0 | Soybean plant response rating (0 to 10 scale) (soybean; [14]): 1 | Soybean plant response rating (soybean; [11]): 0 | Plant response rating, Soybean (soybean; [5]): 0 | Soybean plant response rating (soybean; [15]): 0 | Soybean plant response rating (soybean; [16]): 1 | Plant response rating (0 to 10; 0 is no effect, 10 is complete control), Soybean (soybean; Rate 250 g/ha, Postemergence): 2 | Soybean plant response rating (soybean; [17]): 2 | Blackgrass plant response rating (blackgrass; [10]): 0 | Blackgrass plant response rating (0 to 10 scale) (blackgrass; [14]): 0 | Blackgrass plant response rating (blackgrass; [11]): 0 | Plant response rating, Blackgrass (blackgrass; [5]): 0 | Blackgrass plant response rating (blackgrass; [15]): 0 | Blackgrass plant response rating (blackgrass; [16]): 0 | Plant response rating (0 to 10; 0 is no effect, 10 is complete control), Blackgrass (blackgrass; Rate 250 g/ha, Postemergence): 0 | Blackgrass plant response rating (blackgrass; [17]): 0 | Velvetleaf plant response rating (velvetleaf; [10]): 0 | Velvetleaf plant response rating (velvetleaf; [11]): 0 | Plant response rating, Velvetleaf (velvetleaf; [5]): 0 | Velvetleaf plant response rating (velvetleaf; [15]): 0 | Velvetleaf plant response rating (velvetleaf; [16]): 0 | Plant response rating (0 to 10; 0 is no effect, 10 is complete control), Velvetleaf (velvetleaf; Rate 250 g/ha, Postemergence): 0

Cc1nsc(C)c1-n1c(=O)on(C(=O)N(c2ccc(Cl)cc2)C(C)C)c1=O [Compound 159]
Bedstraw plant response rating (bedstraw; [1]): 0 | Bedstraw plant response rating (bedstraw; [10]): 0 | Bedstraw plant response rating (0 to 10 scale) (bedstraw; [14]): 0 | Bedstraw plant response rating (bedstraw; [11]): 0 | Bedstraw plant response rating (bedstraw; [18]): 0 | Bedstraw plant response rating (bedstraw; [15]): 0 | Plant response rating, Bedstraw (bedstraw; [19]): 0 | Bedstraw plant response rating (bedstraw; [17]): 0 | Soybean plant response rating (soybean; [1]): 3 | Soybean plant response rating (soybean; [10]): 0 | Soybean plant response rating (0 to 10 scale) (soybean; [14]): 0 | Soybean plant response rating (soybean; [11]): 0 | Soybean plant response rating (soybean; [18]): 0 | Soybean plant response rating (soybean; [15]): 0 | Plant response rating, Soybean (soybean; [19]): 3 | Soybean plant response rating (soybean; [17]): 3 | Blackgrass plant response rating (blackgrass; [1]): 0 | Blackgrass plant response rating (blackgrass; [10]): 0 | Blackgrass plant response rating (0 to 10 scale) (blackgrass; [14]): 0 | Blackgrass plant response rating (blackgrass; [11]): 0 | Blackgrass plant response rating (blackgrass; [18]): 0 | Blackgrass plant response rating (blackgrass; [15]): 0 | Plant response rating, Blackgrass (blackgrass; [19]): 0 | Blackgrass plant response rating (blackgrass; [17]): 0 | Velvetleaf plant response rating (velvetleaf; [10]): 0 | Velvetleaf plant response rating (0 to 10 scale) (velvetleaf; [14]): 0 | Velvetleaf plant response rating (velvetleaf; [11]): 0 | Velvetleaf plant response rating (velvetleaf; [18]): 0 | Plant response rating, Velvetleaf (velvetleaf; [19]): 0 | Velvetleaf plant response rating (velvetleaf; [17]): 0

Cc1cccc(C(C)C)c1-n1c(=O)on(C(=O)N(c2ccc(Cl)cc2)C(C)C)c1=O [Compound 64]
Bedstraw plant response rating (bedstraw; [6]): 0 | Bedstraw plant response rating (bedstraw; [20]): 0 | Bedstraw plant response rating (bedstraw; [3]): 0 | Plant response rating, Bedstraw (bedstraw; [21]): 0 | Plant response rating, Bedstraw (bedstraw; [22]): 0 | Bedstraw plant response rating (bedstraw; [23]): 0 | Bedstraw plant response rating (bedstraw; [24]): 0 | Soybean plant response rating (soybean; [6]): 0 | Soybean plant response rating (soybean; [20]): 0 | Soybean plant response rating (soybean; [3]): 0 | Plant response rating, Soybean (soybean; [21]): 0 | Plant response rating, Soybean (soybean; [22]): 0 | Soybean plant response rating (soybean; [25]): 0 | Soybean plant response rating (soybean; [23]): 0 | Soybean plant response rating (soybean; [24]): 1 | Blackgrass plant response rating (blackgrass; [6]): 0 | Blackgrass plant response rating (blackgrass; [20]): 0 | Blackgrass plant response rating (blackgrass; [3]): 0 | Plant response rating, Blackgrass (blackgrass; [21]): 0 | Plant response rating, Blackgrass (blackgrass; [22]): 0 | Blackgrass plant response rating (blackgrass; [25]): 0 | Blackgrass plant response rating (blackgrass; [23]): 0 | Blackgrass plant response rating (blackgrass; [24]): 0 | Velvetleaf plant response rating (velvetleaf; [6]): 0 | Velvetleaf plant response rating (velvetleaf; [20]): 0 | Velvetleaf plant response rating (velvetleaf; [3]): 0 | Plant response rating, Velvetleaf (velvetleaf; [21]): 0 | Plant response rating, Velvetleaf (velvetleaf; [22]): 0 | Velvetleaf plant response rating (velvetleaf; [25]): 0 | Velvetleaf plant response rating (velvetleaf; [23]): 0 | Velvetleaf plant response rating (velvetleaf; [24]): 0

CC(C)N(C(=O)n1oc(=O)n(CCC2OCCO2)c1=O)c1ccccc1 [Compound 560]
Bedstraw plant response rating (bedstraw; [26]): 0 | Bedstraw plant response rating (bedstraw; [3]): 0 | Bedstraw plant response rating (bedstraw; [27]): 0 | Bedstraw plant response rating (0 to 10 scale) (bedstraw; Preemergence, Rate 250 g/ha): 5 | Bedstraw plant response rating (bedstraw; [5]): 8 | Plant response rating, Bedstraw (bedstraw; [28]): 0 | Soybean plant response rating (soybean; [26]): 2 | Plant response rating, Soybean (soybean; [7]): 3 | Soybean plant response rating (soybean; [3]): 0 | Soybean plant response rating (soybean; [27]): 0 | Soybean plant response rating (0 to 10 scale) (soybean; Preemergence, Rate 250 g/ha): 1 | Soybean plant response rating (soybean; [5]): 3 | Plant response rating, Soybean (soybean; [28]): 2 | Blackgrass plant response rating (blackgrass; [26]): 2 | Blackgrass plant response rating (blackgrass; Postemergence, Rate 125 g/ha, scale 0 to 10, 0 is no effect, 10 is complete control): 5 | Plant response rating, Blackgrass (blackgrass; [7]): 7 | Blackgrass plant response rating (blackgrass; [3]): 4 | Blackgrass plant response rating (blackgrass; [27]): 6 | Blackgrass plant response rating (0 to 10 scale) (blackgrass; Preemergence, Rate 250 g/ha): 9 | Blackgrass plant response rating (blackgrass; [5]): 9 | Plant response rating, Blackgrass (blackgrass; [28]): 7 | Velvetleaf plant response rating (velvetleaf; [26]): 0 | Plant response rating, Velvetleaf (velvetleaf; [7]): 0 | Velvetleaf plant response rating (velvetleaf; [3]): 0 | Velvetleaf plant response rating (velvetleaf; [27]): 2 | Velvetleaf plant response rating (0 to 10 scale) (velvetleaf; Preemergence, Rate 250 g/ha): 2 | Velvetleaf plant response rating (velvetleaf; [5]): 5 | Plant response rating, Velvetleaf (velvetleaf; [28]): 0
